Source: PubChem BioAssay AID1918943 (Molecular Pharmacology Branch, DTP, NCI, 2023)
Values joined by “and” are separate entries in the source; they are usually repeats but may differ in a detail not shown here. Equal values may be shown once.

Test system: 855422-203-R-J1-PDC complex spheroid viability
Experiment: Anticancer human tumor 855422-203-R-J1-PDC patient-derived bladder carcinoma cell line growth inhibition
Conditions: for viability, T/C: stronger effect = lower value
Source text: Multicellular complex tumor spheroid response to LSD1 Inhibitor Iadademstat in combination with a variety of drugs and investigational agents in selected tumor cell lines
The current study was undertaken to assess response to LSD1 inhibitors in combination with standard-of-care drugs and investigational agents in solid tumor complex spheroid models as well as in the K-562 leukemia. Complex spheroids include a stromal component modeled by human endothelial cells (HUVEC) and fibroblasts modeled by human mesenchymal stem cells (MSCs). The concentration ranges selected for each drug and investigational agent were based upon clinically achievable concentrations if the clinical Cmax of the agent was known.
Compounds. The drugs and investigational agents used in this study are listed on Table 1. All of the agents used, including staurosporine (NSC755774) and gemcitabine (NSC613327), were obtained from the Developmental Therapeutics Program, NCI. FDA-approved anticancer drugs are available from the NCI at http://dtp.nci.nih.gov/branches/dscb/oncology_drugset_explanation.html. Drugs and investigational agents were >95% pure by proton nuclear magnetic resonance (NMR) and liquid chromatography/mass spectrometry (LC/MS). Stock solutions were prepared at 400x in DMSO, stored at -70 degrees C, and diluted in fresh medium prior to their use. The final concentration of DMSO in cell culture wells never exceeded 0.25% (v/v). The FDA-approved anticancer drug set is available from the Developmental Therapeutics Program at https://dtp.cancer.gov/organization/dscb/obtaining/available_plates.htm. All drugs and investigational agents were tested over a range starting from a high concentration at or near the clinical Cmax and decreasing in half-log increments. If the clinical Cmax for an agent had not been determined, the highest concentration tested was 10 microM.
Cell Lines. The patient-derived cancer cell (PDC) lines: 292921-168-R-J2-PDC, K24384-001-R-PDC, and 521955-158-R2-J5-PDC pancreatic carcinomas, 556581-035-R-J1 ovarian carcinoma, 324938-238-R-J1-PDC, 855422-203-R-J1-PDC and 883617-216-R-J1-PDC urothelial bladder carcinomas, 743489-274-T-PDC renal cell carcinoma, 138582-R-J1 Merkel cell tumor, K60290-347-R-J1 and K57222-313-R-J1-PDC glioblastomas, 653999-131-R-J2-PDC, LG0703-F948-PDC, and 349418-098-R-PDC non-small cell lung carcinomas, 885512-296-R-J2-PDC, 171881-019-R-J1-PDC breast carcinomas and 186277-243-T-J2-PDC and 233499-124-R-J2-PDC colon carcinomas were obtained from the NCI Patient-Derived Models Repository (PDMR, https://pdmr.cancer.gov). The established cell lines NCI/ADR-RES (RRID:CVCL_14520 and OVCAR-5 (RRID:CVCL_1628) ovarian carcinomas, 786-O (RRID:CVCL_1051) and A498 (RRID:CVCL_A498) renal cell carcinoma, NCI-H211 (ATCC, cat. CRL-5824; RRID:CVCL_1529), NCI-H196 (ATCC, cat. CRL-5823, RRID:CVCL_1509), SW 1271 (ATCC, cat. CRL-2177, RRID:CVCL_1716) and NCI-H1876 (ATCC, cat. CRL-5902, RRID:CVCL_1503) small cell lung carcinomas, MDA-MB-231 (RRID:CVCL_0062) and MDA-MB-468 (RRID:CVCL_0419)breast carcinomas (10-12). Pooled donor human umbilical vein endothelial cells (HUVEC, Lonza, cat. CC-2519) and human mesenchymal stem cells (hMSC, Lonza, cat. PT-2501) were purchased from Lonza (Walkersville, MD).
Cell Culture. All cells were maintained in an incubator at 37 degrees C and 5% CO2 with 95% humidity. The PDC lines were cultured according to standard operating procedures established by the NCI PDMR (https://pdmr.cancer.gov). Briefly all PDCs were thawed and cultured in Matrigel-coated flasks prepared with a working solution of 1X Ham's F-12 nutrient mix, without supplementation (Invitrogen, Waltham, MA, cat. 11765054), 100 U/mL penicillin-streptomycin (Invitrogen, cat. 15140122), and 2.5% Matrigel (Corning Inc., Corning, NY, cat. 354248) for the first three passages. […]

[1] = curve of first compound, second compound 0.1 µM
[2] = curve of first compound, second compound 0.316 µM
[3] = curve of first compound, second compound 1 µM
[4] = curve of first compound, second compound 3.16 µM
[5] = curve of first compound, second compound 10 µM
[6] = second compound 0.1 µM, first compound 0.00316 µM
[7] = second compound 0.1 µM, first compound 0.01 µM
[8] = second compound 0.1 µM, first compound 0.0316 µM
[9] = second compound 0.1 µM, first compound 0.1 µM
[10] = second compound 0.316 µM, first compound 0.00316 µM
[11] = second compound 0.316 µM, first compound 0.01 µM
[12] = second compound 0.316 µM, first compound 0.0316 µM
[13] = second compound 0.316 µM, first compound 0.1 µM
[14] = second compound 1 µM, first compound 0.00316 µM
[15] = second compound 1 µM, first compound 0.01 µM
[16] = second compound 1 µM, first compound 0.0316 µM
[17] = second compound 1 µM, first compound 0.1 µM
[18] = second compound 3.16 µM, first compound 0.00316 µM
[19] = second compound 3.16 µM, first compound 0.01 µM
[20] = second compound 3.16 µM, first compound 0.0316 µM
[21] = second compound 3.16 µM, first compound 0.1 µM
[22] = second compound 10 µM, first compound 0.00316 µM
[23] = second compound 10 µM, first compound 0.01 µM
[24] = second compound 10 µM, first compound 0.0316 µM
[25] = second compound 10 µM, first compound 0.1 µM
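Further: drug exposure lasted 7 days starting on day 3 after seeding.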
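Wherever viability, T/C is given: luminescence viability as percent of DMSO vehicle wells = 100%.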

**Q.** Which results are given for `CC(C)CC(NC(=O)C(Cc1ccccc1)NC(=O)c1cnccn1)B(O)O` (centres undefined) + NC1CCC(NC2CC2c2ccccc2)CC1?
**A.** IC50 [1]: 0.527 nM; IC50 [2]: 0.428 nM; IC50 [3]: 0.484 nM; IC50 [4]: 0.498 nM; IC50 [5]: 0.463 nM; viability, T/C (second compound 0.1 µM, first compound 0.000316 µM): 88%; viability, T/C (second compound 0.1 µM, first compound 0.001 µM): 2.43%; viability, T/C [6]: 0.03%; viability, T/C [7]: 0.01%; viability, T/C [8]: 0.02%; viability, T/C [9]: 0.1%; viability, T/C (second compound 0.316 µM, first compound 0.000316 µM): 67.2%; viability, T/C (second compound 0.316 µM, first compound 0.001 µM): 2.02%; viability, T/C [10]: 0.02%; viability, T/C [11]: 1.84%; viability, T/C [12]: 0.01%; viability, T/C [13]: 1.34%; viability, T/C (second compound 1 µM, first compound 0.000316 µM): 78.2%; viability, T/C (second compound 1 µM, first compound 0.001 µM): 1.83%; viability, T/C [14]: 0.03%; viability, T/C [15]: 0.01%; viability, T/C [16]: 0.01%; viability, T/C [17]: 2.03%; viability, T/C (second compound 3.16 µM, first compound 0.000316 µM): 81.7%; viability, T/C (second compound 3.16 µM, first compound 0.001 µM): 1.37%; viability, T/C [18]: 0.09%; viability, T/C [19]: 0.01%; viability, T/C [20]: 0.02%; viability, T/C [21]: 0.05%; viability, T/C (second compound 10 µM, first compound 0.000316 µM): 74.6%; viability, T/C (second compound 10 µM, first compound 0.001 µM): 0.29%; viability, T/C [22]: 0.05%; viability, T/C [23]: 0.08%; viability, T/C [24]: 0.12%; viability, T/C [25]: 0.14%

**Q.** What does the source list for `COc1cc(Nc2ncc3c(n2)-c2ccc(Cl)cc2C(c2c(F)cccc2OC)=NC3)ccc1C(=O)O` + NC1CCC(NC2CC2c2ccccc2)CC1?
**A.** IC50 [1]: > 1000 nM; IC50 [2]: > 1000 nM; IC50 [3]: > 1000 nM; IC50 [4]: 892 nM; IC50 [5]: > 1000 nM; viability, T/C [6]: 81%; viability, T/C [7]: 91.2%; viability, T/C [8]: 78.8%; viability, T/C [9]: 70.8%; viability, T/C (second compound 0.1 µM, first compound 0.316 µM): 64.5%; viability, T/C (second compound 0.1 µM, first compound 1 µM): 50.3%; viability, T/C [10]: 88.1%; viability, T/C [11]: 81.2%; viability, T/C [12]: 66.4%; viability, T/C [13]: 70.7%; viability, T/C (second compound 0.316 µM, first compound 0.316 µM): 64.2%; viability, T/C (second compound 0.316 µM, first compound 1 µM): 56.5%; viability, T/C [14]: 95.7%; viability, T/C [15]: 94.6%; viability, T/C [16]: 67.8%; viability, T/C [17]: 71.2%; viability, T/C (second compound 1 µM, first compound 0.316 µM): 61.5%; viability, T/C (second compound 1 µM, first compound 1 µM): 57%; viability, T/C [18]: 76.3%; viability, T/C [19]: 81.3%; viability, T/C [20]: 70.8%; viability, T/C [21]: 66.1%; viability, T/C (second compound 3.16 µM, first compound 0.316 µM): 59.4%; viability, T/C (second compound 3.16 µM, first compound 1 µM): 48.8%; viability, T/C [22]: 83.2%; viability, T/C [23]: 85.5%; viability, T/C [24]: 64.8%; viability, T/C [25]: 63%; viability, T/C (second compound 10 µM, first compound 0.316 µM): 57.7%; viability, T/C (second compound 10 µM, first compound 1 µM): 52.6%

**Q.** `CC1COCCN1c1cc(C2(S(C)(=N)=O)CC2)nc(-c2ccnc3[nH]ccc23)n1` (centres undefined) was tested. Which viability, T/C (compound 0.0316 µM) did it give?
**A.** The viability, T/C was 108% and 93.8%.

**Q.** And the viability, T/C (compound 0.1 µM)?
**A.** Its viability, T/C is 99.9% and 93.1%.

**Q.** What about the viability, T/C (compound 0.316 µM) of the same compound?
**A.** Its viability, T/C is 101% and 94.4%.

**Q.** What about the viability, T/C (compound 1 µM) of the same compound?
**A.** The viability, T/C was 84.9% and 85.9%.

**Q.** What about the viability, T/C (compound 3.16 µM) of the same compound?
**A.** Its viability, T/C is 45% and 36.6%.

**Q.** And the viability, T/C (compound 10 µM)?
**A.** Its viability, T/C is 40.7% and 35%.

**Q.** And the IC50 (curve of compound)?
**A.** The IC50 was 2760 nM and 2310 nM.

**Q.** `Cn1ncnc1C1c2n[nH]c(=O)c3cc(F)cc(c23)NC1c1ccc(F)cc1` (centres undefined) was tested. Which viability, T/C (compound 0.000316 µM) did it give?
**A.** Its viability, T/C is 114% and 96.5%.

**Q.** What about the viability, T/C (compound 0.001 µM) of the same compound?
**A.** Its viability, T/C is 89% and 83.3%.

**Q.** What about the viability, T/C (compound 0.00316 µM) of the same compound?
**A.** The viability, T/C was 95.8% and 84.2%.

**Q.** What about the viability, T/C (compound 0.01 µM) of the same compound?
**A.** The viability, T/C was 95.8% and 73.8%.

**Q.** And the viability, T/C (compound 0.0316 µM)?
**A.** The viability, T/C was 89.2% and 86.2%.

**Q.** And the viability, T/C (compound 0.1 µM)?
**A.** The viability, T/C was 81.8% and 86.8%.

**Q.** What about the IC50 (curve of compound) of the same compound?
**A.** The IC50 was greater than 100 nM.
